Results as given in ChEMBL document CHEMBL5096164, “In Vivo Profiling of a Natural Alkaloid, Anatabine, in Rodents: Pharmacokinetics and Anti-Inflammatory Efficacy” (J Nat Prod, 2021).

Experiments:
[1] = Half life in mouse plasma
[2] = in vivo; conditions: rat, plasma

Compound: CN1CCC[C@H]1c1cccnc1 [NICOTINE]
- half-life [1]: 6 min
- half-life [2]: 54 min
